Results on two molecules are retold here after patent publication US20060035810A1, “Regulation of ins(3456)p4 signalling by a reversible kinase phosphatase and methods and compositions related thereto” (priority 2002, published 2006).

The target in assay [1] is T1, Ins(1,3,4,5,6)P5 1-phosphatase activity of Ins(3,4,5,6)P4 kinase (Homo sapiens, UniProt Q13572).
T1 construct: made in house; host or cells: E. coli
T1 sequence (Q13572 1-414): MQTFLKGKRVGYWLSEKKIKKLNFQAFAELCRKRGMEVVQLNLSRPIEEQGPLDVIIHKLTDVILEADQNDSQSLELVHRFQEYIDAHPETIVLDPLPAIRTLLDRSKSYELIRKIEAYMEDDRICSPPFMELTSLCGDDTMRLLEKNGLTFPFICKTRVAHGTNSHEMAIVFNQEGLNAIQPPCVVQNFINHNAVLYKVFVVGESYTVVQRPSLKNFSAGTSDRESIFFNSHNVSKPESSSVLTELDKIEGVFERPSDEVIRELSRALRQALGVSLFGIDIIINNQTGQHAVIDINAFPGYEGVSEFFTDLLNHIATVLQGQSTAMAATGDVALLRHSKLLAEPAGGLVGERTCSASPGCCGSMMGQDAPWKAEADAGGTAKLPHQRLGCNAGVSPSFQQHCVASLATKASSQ
Kind of assay: Inositol phosphate phosphatase activity assay with ADP (HPLC). The format is biochemical. The protocol: Ins(3,4,5,6)P4 kinase (0.4 μg) was incubated for 30 min in 100 μl phosphatase assay buffer (see Methods) either with (closed circles) or without (open circles) 5 mM ADP plus trace-amounts of either [^3H]Ins(1,3,4,5,6)P5 (panel A) [^3H]Ins(1,3,4,6)P4 (panel B), or [^3H]Ins(1,3,4,5)P4 (panel C). Samples were analyzed by HPLC (see Methods). The elution positions of Ins(1,3,4)P3 and Ins(3,4,5,6)P4 were verified with genuine standards. The elution positions of Ins(1,3,4,6)P4 (106 min, panel B) and of Ins(1,3,4,5)P4 (110 min, panel C) exclude these as products of InsP5 dephosphorylation (panel A).
Additional incubations were performed with 5 μM [^3H]Ins(1,3,4)P3 (approx. 1200 d.p.m.) plus either no Ins(1,3,4,5,6)P5 (open circles) or 5 μM non-radiolabeled Ins(1,3,4,5,6)P5 (closed circles); these reactions were assayed by HPLC (Synchropak Q100 column) and the InsP4 region of the chromatogram is shown in Panel B.
Inositol phosphate phosphatase activity was assayed in buffer containing 100 mM KCl, 20 mM HEPES pH 7.2, 5 mM ADP, 6 mM MgSO4, 0.3 mg/ml bovine serum albumin. Assays were acid-quenched, neutralized and analyzed by HPLC using a Synchropak Q100 columm (Caffrey et al., “Expanding Coincident Signaling by PTEN through its Inositol 1,3,4,5,6-Pentakisphosphate 3-phosphatase Activity,” FEBS Lett 499: 6-10 (2001)); 1 ml fractions were collected for 70 min., followed by 0.5 ml fractions. Inositol phosphate kinase activity was assayed in buffer containing 100 mM KCl, 20 mM HEPES pH 7.2, 5 mM ATP, 10 mM phosphocreatine, 6 mM MgSO4, 10 μg/ml creatine phosphokinase (Calbiochem), 0.3 mg/ml bovine serum albumin. Some assays were acid-quenched and analyzed by HPLC using a Synchropak Q100 column. Other reactions were heat-inactivated (95° C., 3 min) and analyzed by a metal dye detection, HPLC method (Mayr, “A novel metal-dye detection sysytem permits picomolar-range h.p.l.c. analysis of inositol polyphosphates from non-radioactively labelled cell or tissue specimens,” Biochem J 254: 585-591 (1988); Adelt et al., “Enzyme-assisted total synthesis of the optical antipodes D-myo-inositol 3,4,5-trisphosphate and D-myo-inositol 1,5,6-trisphosphate: aspects of their structure-activity relationship to biologically active inositol phosphates,” J Med Chem 42: 1262-1273 (1999)).

Assay [2] relates to calcium-activated Cl− channels. Briefly: Whole-cell Cl− current in CFPAC-1 cells (bio-assay for Ins(3,4,5,6)P4). The format is cell-based, human. The conditions noted are these: 10 μM in CFPAC-1 cells; control 54±3 pA/pF; +40 mV, free [Ca2+] 0.5 μM. The protocol:
T84 cells were detached by incubation with 0.25% (w/v) trypsin/0.02% (w/v) EDTA for 5-6 min. After trypsin removal, 200 μl aliquots (1.5×10^6/ml) were seeded into the circular wells (area=0.45 cm^2) of permeable supports, made by gluing (Silastic® sealant, Dow Corning, Midland, Mich.) a Sylgard® ring to filters composed of mixed cellulose esters (Millipore Corp., Bedford, Mass.). Seeded supports were floated on culture medium and incubated for 11-14 days before being mounted in modified Snapwell holders in Using chambers (EasyMount System, Physiologics Instruments, San Diego, Calif.). Transcellular Cl^− flux was then recorded as the short-circuit current as previously described. The resistance of the monolayers were (vector) 346±44 ohms/cm^2 (mean±se, n=12) and (kinase) 354±62 ohms/cm^2 (mean±se, n=12). Whole-cell Cl^− currents in CFPAC—I cells were measured at +40 mV as previously described using an intracellular Ca^2+-BAPTA buffer to clamp free [Ca^2+] to 0.5 μM [8]. One possibility is that Ins(3,4,5,6)P4 originates by phosphorylation of an InsP3 precursor. […] Control whole-cell Cl^− current (54±3 pA/pF, n—17) was reduced to 24±3 pA/pF (n=7) by 10 μM Ins(3,4,5,6)P4.

For assay [3], the system named is calcium-activated Cl− channels. The conditions noted are these: read-out: sensitivity of calcium-activated Cl− channels to Ins(3,4,5,6)P4 (IC50); cited from earlier work.

For the molecule `O=P(O)(O)OC1[C@@H](OP(=O)(O)O)[C@H](OP(=O)(O)O)C(O)[C@H](OP(=O)(O)O)[C@H]1OP(=O)(O)O` (stereo partly shown) [Ins(1,3,4,5,6)P5, inositol 1,3,4,5,6-pentakisphosphate], in assay [1] (5 mM ADP, trace amounts of substrate), the “product of ADP-dependent dephosphorylation” value is “dephosphorylated to an [^3H]InsP4 peak co-eluting upon HPLC with a standard of Ins(3,4,5,6)P4”. In addition, the Vmax for dephosphorylation in assay [1] (with Ins(1,3,4)P3 present) was 82 pmol/μg protein/min.

For `O=P(O)(O)OC1C(O)C(O)C(OP(=O)(O)O)C(OP(=O)(O)O)C1OP(=O)(O)O` (stereo not shown) [Ins(3,4,5,6)P4, inositol 3,4,5,6-tetrakisphosphate], the “whole-cell Cl− current” value in assay [2] amounted to 24±3 pA/pF. Besides, the concentration for half-maximal inhibition (IC50) (commonly the concentration at which inhibition is half-maximal) in assay [3] is 3000 nM.
